This note sets out measurements from patent US20240182945A1, “PRODUCTS FOR REGULATION OF EUKARYOTIC AND MICROBIAL CELLS GROWTH” (priority 2021, published 2024).

Common to all, as to format: cell-based
In assay [1] the test system is MIX—PP +BM (P. aeruginosa with microbial modulators). In words: Growth of mix PP + MM (original sputum) on antibiotic-supplemented Columbia agar. The note with it: Columbia agar with erythrocytes 5%, 24 h at 37 C.
The next assay relates to E. coli. In words: Growth of microbial modulator alone on antibiotic-supplemented Columbia agar. Conditions: Columbia agar with erythrocytes 5%, 24 h at 37 C.
In assay [2] the test system is bacteria of sputum from patients with lung diseases. In words: Sputum plated on 24-well plates with antibiotics at Cmax or C0-4 h, Algorithm #1 or #2. Note: key: '+'—presence of bacterial growth, antibiotic ineffective; '−'—absence of bacterial growth, antibiotic effective. As for the experimental part:
Pathological material (sputum) from patients with lung diseases was plated into wells of 24-well plates filled with a nutrient medium supplemented with erythrocytes 5%, to which antibiotics were added taken at different concentrations.
Group #1—antibiotics were taken at concentrations close to a maximum (peak) concentration achievable at the site of infection Cmax
Algorithm #1. Lab technician, analyzed the appearance of bacterial growth by comparing the signs of bacterial growth in each well supplemented with antibiotic(s) at certain timepoint, with the signs of bacterial growth in the same well at previous time point(s).
Algorithm #2. Lab technician analyzed the appearance of bacterial growth by comparing the signs of bacterial growth in each well supplemented with antibiotic(s) with bacterial growth in antibiotic-free control

For another assay, the system named is P. aeruginosa. In words: Growth of primary pathogen alone on antibiotic-supplemented Columbia agar. Conditions: Columbia agar with erythrocytes 5%, 24 h at 37 C. As for the experimental part: Four sputum samples from patients with lung infections were used. Pure bacterial culture of each microorganisms was obtained by routine microbiological methods.
In this case this antibiotic at MIC of 16 ug/mL was used in the following studies. PP alone, or Microbial Modulators (MM) alone or the original sputum were plated on the wells of 24 well plate filled with nutrient Columbia agar supplemented with erythrocytes 5% and supplemented with antibiotics taken as MIC determined against PP, but not more than 16 μg/mL and incubated 24 h at 37 C.

For a further assay, the system named is S. haemolyticus. In words: Growth of microbial modulator alone on antibiotic-supplemented Columbia agar. Conditions: Bacterial set #4; Amikacin (1 μg/mL); Columbia agar with erythrocytes 5%, 24 h at 37 C.
Assay [3] concerns bacteria of sputum from patients with lung diseases. In words: Standard antibiotic susceptibility study using the microbroth dilution method (Algorithm #3). Note: key: '+'—presence of bacterial growth, antibiotic ineffective; '−'—absence of bacterial growth, antibiotic effective. The source says:
Algorithm #3—Standard antibiotic susceptibility study using the microbroth dilution method.

Another assay deals with B. thailandensis. The note with it: Bacterial set #3; Ceftazidime (2 μg/mL); Columbia agar with erythrocytes 5%, 24 h at 37 C.
The subject of another assay is S. aureus. In words: Growth of microbial modulator alone on antibiotic-supplemented Columbia agar. Conditions: Bacterial set #3; Ceftazidime (2 μg/mL); Columbia agar with erythrocytes 5%, 24 h at 37 C.
The next assay concerns B. sonorensis. The assay is described as above. Conditions: Bacterial set #1; Meropenem (16 μg/mL); Columbia agar with erythrocytes 5%, 24 h at 37 C.
In the next assay the test system is S. anginosus. The assay is described as above. Conditions: Bacterial set #1; Meropenem (16 μg/mL); Columbia agar with erythrocytes 5%, 24 h at 37 C.
Where [4] appears, read: Bacterial set #4, Amikacin (1 μg/mL).
The mark [5] stands for this setting: Algorithm #1, antibiotic at C0-4 h.
The mark [6] stands for this setting: Algorithm #1, antibiotic at Cmax.
[7] abbreviates: Algorithm #2, antibiotic at C0-4 h.
[8] abbreviates: Algorithm #2, antibiotic at Cmax.
Setting [9] is: Bacterial set #3, Ceftazidime (2 μg/mL).
Where [10] appears, read: Bacterial set #1, Meropenem (16 μg/mL).

`NCC[C@H](O)C(=O)N[C@@H]1C[C@H](N)[C@@H](O[C@H]2O[C@H](CN)[C@@H](O)[C@H](O)[C@H]2O)[C@H](O)[C@H]1O[C@H]1O[C@H](CO)[C@@H](O)[C@H](N)[C@H]1O` [Amikacin]: the “Presence of PP in Mix (PP + MM)” value in assay [1] (setting [4]) is on record as “−”. For the same compound, the “microbial growth, EC (BM alone)” value with E. coli (setting [4]) is on record as “−”. The ATB efficacy result in assay [2] (setting [5]), in assay [2] (setting [6]), in assay [2] (setting [7]), in [2] (setting [8]) and in [3] was “−” in each case. Further, in the assay on P. aeruginosa (setting [4]), the “microbial growth, PA (PP alone)” value is recorded as “+”. The “microbial growth, SH (BM alone)” value in the assay on S. haemolyticus is recorded as “+”.

Regarding `CC(C)(O/N=C(\C(=O)N[C@@H]1C(=O)N2C(C(=O)[O-])=C(C[n+]3ccccc3)CS[C@H]12)c1csc(N)n1)C(=O)O` [Ceftazidime], the “microbial growth, BT (BM alone)” value with B. thailandensis is reported as “+”. Besides, in assay [1] (setting [9]), the “Presence of PP in Mix (PP + MM)” value is reported as “−”. Besides, the ATB efficacy result in [2] (setting [5]), in assay [2] (setting [6]), in assay [2] (setting [7]), in assay [2] (setting [8]) and in [3] was “+” throughout. The “microbial growth, PA (PP alone)” value in the assay on P. aeruginosa (setting [9]) is given as “+”. For the same compound, in the assay on S. aureus, the “microbial growth, SA (BM alone)” value is reported as “+”.

As for `C[C@@H](O)[C@H]1C(=O)N2C(C(=O)O)=C(S[C@@H]3CN[C@H](C(=O)N(C)C)C3)[C@H](C)[C@H]12` [Meropenem], the “microbial growth, BS (BM alone)” value in the assay on B. sonorensis was “−”. In [1] (setting [10]), the “microbial growth, MIX (PP + MM)” value is listed as “−”. Further, the “microbial growth, EC (BM alone)” value in the assay with E. coli (setting [10]) is recorded as “+”. Further, the “microbial growth, SA (BM alone)” value in the assay on S. anginosus is recorded as “−”. In addition, the “microbial growth, PA (PP alone)” value with P. aeruginosa (setting [10]) is listed as “+”.
